# What was measured:
# Assay type in all cases: in vivo, rat
# Conditions in all cases: 300 mg/Kg p.o.
# [1] = tested on: male rats (SPF); assay: Ethanol-inducted gastric mucosa damage test
# Protocol: (§1) administration route: oral administration applied dose: 5 mL/Kg administration means: administered by using a disposable injection cylinder and a sonde for oral administration administration time: administered 60 minutes before the preparation of a gastric mucosa damaged model
# (§2) After about 24 hours of fasting, the rats were put into a stress cage (manufactured by Natsume Seisakusho Co., Ltd.), and the cage was immersed in a water tank at 23° C. 6 hours after that, the blood was removed from the rats to kill them under anesthesia with pentobarbital sodium (40 mg/Kg, i.p.), and the stomachs of these rats were extracted. 10 mL of a 1% formalin solution was injected into the stomachs to immerse them in the solution for 10 minutes or more. The stomachs were cut open along the greater curvature to measure the length (mm) of a damage by a stereomicroscope. The total of damages of each rat was taken as the damage coefficient of the rat.
# An ethanol-inducted gastric mucosa damage test was conducted on male rats (SPF) by using the composite magnesium oxide particles obtained in Example 5. For comparison, magnesium oxide manufactured by Kyowa Chemical Industry Co., Ltd. was used.
# After about 24 hours of fasting, 1 mL of ethanol (99.5%) was orally administered to each rat. […]
# [2] = tested on: male rats (SPF); assay: Water immersion stress gastric mucosa damage test
# Protocol: A water immersion stress gastric mucosa damage test was conducted on male rats (SPF) using the composite magnesium oxide particles obtained in Example 5. For comparison, magnesium oxide manufactured by Kyowa Chemical Industry Co., Ltd. was used.
# as §1, §2
# [3] = tested on: male rats (SPF); assay: Indometacin-inducted gastric mucosa damage test
# Protocol: as §1, §2
# An indometacin-inducted gastric mucosa damage test was conducted on male rats (SPF) by using the composite magnesium oxide particles obtained in Example 5. For comparison, magnesium oxide manufactured by Kyowa Chemical Industry Co., Ltd. was used.
# After about 24 hours of fasting, 30 mg/Kg of indometacin (15 mg/mL: suspended by using a 0.5% methylcellulose aqueous solution) was subcutaneously administered to each rat. […]
# [4] = tested on: male rats (SPF); assay: Gastric ulceration test (acetic acid ulceration models)
# Protocol: The influence of the composite magnesium oxide particles obtained in Example 3 upon gastric ulceration was investigated using male rats (SPF). For comparison, magnesium oxide particles (MgO) manufactured by Kyowa Chemical Industry Co., Ltd. were used. The rats were abdominally operated under anesthesia with pentobarbital sodium (10 mg/Kg, i.p.), 30 μL of 20% acetic acid was injected into the submucosal coat at the boundary between the body of stomach and the vestibular region of the pyloric from the serosal side to prepare acetic acid ulceration models. […] On the day following the last administration, the stomachs of the models were extracted under anesthesia with pentobarbital sodium (40 mg/Kg, i.p.) to measure the long diameter and short diameter (mm) of an ulcer.
# [5] = tested on: male rats (SPF); assay: Aspirin-inducted gastric mucosa damage test
# Protocol: as §1, §2
# An aspirin-inducted gastric mucosa damage test was conducted on male rats (SPF) by using the composite magnesium oxide particles obtained in Example 5. For comparison, magnesium oxide manufactured by Kyowa Chemical Industry Co., Ltd. was used.
# After about 24 hours of fasting, 125 mg/Kg of aspirin (62.5 mg/mL: suspended by using a methylcellulose aqueous solution) was orally administered to each rat twice every 2 hours. […]
smiles,measurement,setting,value
"[O]=[Mg] [Comparative example, magnesium oxide]",Damage coefficient (Lesions),"[1]; 1 mL ethanol (99.5%) orally, 1 hour, 6 rats",25.5 ± 8.9 mm
same,Inhibition ratio,[1]; ethanol-inducted,48%
same,Damage coefficient (Lesions),"[2]; 60 min before, water immersion stress 23° C., 6 hours, 6 rats",18.1 ± 3.6 mm
same,Inhibition ratio,[2]; water immersion stress,56%
same,Damage coefficient (Lesions),"[3]; indometacin 30 mg/Kg s.c., 5 hours, 6 rats",0.0 ± 0.0 mm
same,Inhibition ratio,[3]; indometacin-inducted,100%
same,Inhibition ratio of gastric lesion,[4],19%
same,Damage coefficient (Lesions area),"[4]; once each day for 10 days, 6 rats",5.2 ± 1.0 mm^2
same,Damage coefficient (Lesions),"[5]; aspirin 125 mg/Kg orally twice, 4 hours after second, 6 rats",27.8 ± 4.3 mm
same,Inhibition ratio,[5]; aspirin-inducted,43%
